From US20210261512A1, “NOVEL COMPOUNDS” (INFLAZOME LIMITED, priority 2018, published 2021)

Key:
[1] = PK, intravenous administration; format: in vivo; conditions: rat, plasma, male Sprague Dawley rats, dose about 1 mg/kg; for Vd: read-out: Vdss
Procedure, shortened: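 Male Sprague Dawley rats (6-9 weeks); IV dosing via tail vein as solution in DMSO:water or DMSO:PBS (10:90), oral dosing in 0.5% methylcellulose after overnight fasting. Plasma sampled at 8 time-points to 24 h; parameters derived from LC-MS/MS data.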

NLRP3 [2] = target: T1, NLRP3 (Homo sapiens, UniProt Q96P20); experiment: Human whole blood IL1β release assay; format: cell-based; conditions: LPS 1 μg/ml, nigericin 10 μM, IL-1β AlphaLisa, 10 μM top dose (Example 2: top dose of 30 μM), read-out: HWB IC50
Procedure, shortened: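 Healthy-donor heparinised human whole blood with 1 μg/ml LPS, compound (8-point half-log dilution, 10 μM top dose unless stated; 0.1% DMSO vehicle) for 3 h at 37 °C, then nigericin 10 μM final for 1 h. Supernatant IL-1β by AlphaLISA; IC50 from 4-parameter variable-slope fit.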

NLRP3 [3] = target: T1, NLRP3; experiment: THP-1 cells pyroptosis assay; format: cell-based; design: Seed THP-1 cells (25,000 cells/well) containing 1.0 μg/ml LPS; host or cells: THP-1; conditions: LPS 1.0 μg/ml, nigericin 5 μM, resazurin readout, 10 μM top dose (Example 2: top dose of 30 μM)
Procedure, shortened: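 Pyroptosis induced by 5 μM nigericin (1 h) in LPS-primed (1 μg/ml) THP-1 cells, 25,000/well in serum-free RPMI, after 3 h compound pre-treatment (8 points, 10 μM top unless stated). Surviving cells measured with 100 μM resazurin, Ex 560/Em 590; IC50 via variable-slope 4-parameter regression.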

T1 sequence (Q96P20 whole entry): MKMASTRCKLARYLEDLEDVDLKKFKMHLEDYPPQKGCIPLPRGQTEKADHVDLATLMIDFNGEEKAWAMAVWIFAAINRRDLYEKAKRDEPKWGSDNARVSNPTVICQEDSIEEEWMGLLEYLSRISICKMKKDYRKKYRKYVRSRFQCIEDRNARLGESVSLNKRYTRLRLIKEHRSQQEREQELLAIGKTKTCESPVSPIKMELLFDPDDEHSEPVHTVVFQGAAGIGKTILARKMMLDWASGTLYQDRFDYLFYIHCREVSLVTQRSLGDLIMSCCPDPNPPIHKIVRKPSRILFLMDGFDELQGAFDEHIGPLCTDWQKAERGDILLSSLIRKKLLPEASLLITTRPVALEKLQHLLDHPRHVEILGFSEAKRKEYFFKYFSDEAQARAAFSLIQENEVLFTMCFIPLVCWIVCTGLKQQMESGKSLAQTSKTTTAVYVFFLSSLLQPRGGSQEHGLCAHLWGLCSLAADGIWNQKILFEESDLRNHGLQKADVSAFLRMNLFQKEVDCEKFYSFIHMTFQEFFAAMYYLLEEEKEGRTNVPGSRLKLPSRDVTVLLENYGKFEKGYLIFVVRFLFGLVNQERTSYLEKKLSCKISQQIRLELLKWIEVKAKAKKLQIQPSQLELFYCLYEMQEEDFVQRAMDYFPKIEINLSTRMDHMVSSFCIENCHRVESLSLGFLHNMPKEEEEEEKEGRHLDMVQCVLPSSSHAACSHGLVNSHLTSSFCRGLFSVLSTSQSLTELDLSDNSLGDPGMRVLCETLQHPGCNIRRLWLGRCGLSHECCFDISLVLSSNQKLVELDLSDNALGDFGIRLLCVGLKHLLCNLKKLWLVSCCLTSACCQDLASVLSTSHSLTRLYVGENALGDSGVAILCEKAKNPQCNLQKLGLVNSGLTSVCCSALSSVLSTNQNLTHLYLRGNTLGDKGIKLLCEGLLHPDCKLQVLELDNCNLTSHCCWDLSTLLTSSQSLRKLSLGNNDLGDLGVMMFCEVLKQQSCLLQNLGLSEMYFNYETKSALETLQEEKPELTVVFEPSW

SMILES	AUC [1] [µg·h/mL]	clearance [1] [L/h/kg]	half-life [1] [h]	Vd [1] [L/kg]	IC50 (NLRP3 [2]) [µM]	IC50 (NLRP3 [3]) [µM]
CS(=O)(=O)c1nnc(Nc2c3c(cc4c2CCC4)CCC3)[nH]1 [Example 75, N-(1,2,3,5,6,7-hexahydro-s-indacen-4-yl)-5-(methylsulfonyl)-4H-1,2,4-triazol-3-amine]	1	1	0.5	0.56	≤ 10	≤ 5
COc1cc(-c2ccc3c(c2Nc2nnc(S(=O)(=O)N4CC5(CCN(C)C5)C4)[nH]2)CCO3)ccn1 [Example 214, N-(5-(2-methoxypyridin-4-yl)-2,3-dihydrobenzofuran-4-yl)-5-((6-methyl-2,6-diazaspiro[3.4]octan-2-yl)sulfonyl)-4H-1,2,4-triazol-3-amine]	0.182	4.69	0.25	1.02	≤ 0.5	≤ 0.5
CN1CCCC1CCS(=O)(=O)c1nnc(Nc2c3c(cc4c2CCC4)CCC3)[nH]1 (stereo not drawn) [Example 60, N-(1,2,3,5,6,7-hexahydro-s-indacen-4-yl)-3-((2-(1-methylpyrrolidin-2-yl)ethyl)sulfonyl)-1H-1,2,4-triazol-5-amine]	0.278	3.6	1	3.24	≤ 5	≤ 1
CN(C)CC1CCN(S(=O)(=O)c2nnc(Nc3c4c(cc5c3CCC5)CCC4)[nH]2)C1 (stereo not drawn) [Example 119, 5-((3-((dimethylamino)methyl)pyrrolidin-1-yl)sulfonyl)-N-(1,2,3,5,6,7-hexahydro-s-indacen-4-yl)-4H-1,2,4-triazol-3-amine]	0.162	6.36	2.6	10.1	≤ 0.5	≤ 0.5
CC(C)c1cc(F)cc(-c2ccncc2)c1Cc1nnc(S(=O)(=O)N2CCC(CN(C)C)C2)[nH]1 (stereo not drawn) [Example 153, 1-(1-((5-(4-fluoro-2-isopropyl-6-(pyridin-4-yl)benzyl)-4H-1,2,4-triazol-3-yl)sulfonyl)pyrrolidin-3-yl)-N,N-dimethylmethanamine]	0.198	5.05	0.36	2.66	≤ 5	≤ 0.5
CCN(CC)CCCS(=O)(=O)c1nnc(Nc2c(-c3ccnc(OC)c3)ccc3c2CCC3)[nH]1 [Example 76, 5-((3-(diethylamino)propyl)sulfonyl)-N-(5-(2-methoxypyridin-4-yl)-2,3-dihydro-1H-inden-4-yl)-4H-1,2,4-triazol-3-amine]	0.21	4.76	0.9	2.48	≤ 5	≤ 0.5
CC(C)N1CC(S(=O)(=O)c2nnc(Nc3c4c(cc5c3CCC5)CCC4)[nH]2)C1 [Example 22, N-(1,2,3,5,6,7-hexahydro-s-indacen-4-yl)-5-((1-isopropylazetidin-3-yl)sulfonyl)-4H-1,2,4-triazol-3-amine]	0.364	2.75	0.4	1.09	≤ 10	≤ 5
CN(C)C1CCN(S(=O)(=O)c2nnc(Nc3c4c(cc5c3CCC5)CCC4)[nH]2)CC1 [Example 118, 1-((5-((1,2,3,5,6,7-hexahydro-s-indacen-4-yl)amino)-4H-1,2,4-triazol-3-yl)sulfonyl)-N,N-dimethylpiperidin-4-amine]	0.307	3.25	1.4	4.01	≤ 0.5	≤ 0.5
COc1cc(-c2cc(F)cc(C(C)C)c2Oc2nnc(S(=O)(=O)N3CCC(CN(C)C)C3)[nH]2)ccn1 (stereo not drawn) [Example 69, 1-(1-((5-(4-fluoro-2-isopropyl-6-(2-methoxypyridin-4-yl)phenoxy)-4H-1,2,4-triazol-3-yl)sulfonyl)pyrrolidin-3-yl)-N,N-dimethylmethanamine]	0.267	3.93	0.71	1.29	≤ 1	≤ 1

The remaining lines, values ahead:

AUC [1] [µg·h/mL]	clearance [1] [L/h/kg]	half-life [1] [h]	Vd [1] [L/kg]	IC50 (NLRP3 [2]) [µM]	IC50 (NLRP3 [3]) [µM]	SMILES
0.221	4.5	3.53	14.9	≤ 1	≤ 0.5	CN(C)C1CCCN(S(=O)(=O)c2nnc(Nc3c4c(cc5c3CCC5)CCC4)[nH]2)CC1 (stereo not drawn) [Example 271, 1-((5-((1,2,3,5,6,7-hexahydro-s-indacen-4-yl)amino)-4H-1,2,4-triazol-3-yl)sulfonyl)-N,N-dimethylazepan-4-amine]
0.169	5.41	2.23	9.57	≤ 1	≤ 0.5	COc1cc(-c2cc(F)cc(C(C)C)c2Nc2nnc(S(=O)(=O)N3CCC(CN(C)C)C3)[nH]2)ccn1 (stereo not drawn) [Example 259, 5-((3-((dimethylamino)methyl)pyrrolidin-1-yl)sulfonyl)-N-(4-fluoro-2-isopropyl-6-(2-methoxypyridin-4-yl)phenyl)-4H-1,2,4-triazol-3-amine]
0.253	4.35	2.72	12.7	≤ 0.5	≤ 0.5	CC(C)c1cc(F)cc(C(C)C)c1Nc1nnc(S(=O)(=O)N2CCC3(CCCN3C)CC2)[nH]1 [Example 247, N-(4-fluoro-2,6-diisopropylphenyl)-5-((i-methyl-1,8-diazaspiro[4.5]decan-8-yl)sulfonyl)-4H-1,2,4-triazol-3-amine]
0.271	3.7	1.64	6.2	≤ 0.5	≤ 0.5	CN1CCC2(C1)CN(S(=O)(=O)c1nnc(Nc3c4c(cc5c3CCC5)CCC4)[nH]1)C2 [Example 274, N-(1,2,3,5,6,7-hexahydro-s-indacen-4-yl)-5-((6-methyl-2,6-diazaspiro[3.4]octan-2-yl)sulfonyl)-4H-1,2,4-triazol-3-amine]
0.175	5.72	2.52	12.1	≤ 1	≤ 0.5	O=S(=O)(c1nnc(Nc2c3c(cc4c2CCC4)CCC3)[nH]1)N1CCC2(CCCN2)CC1 [Example 268, 5-((1,8-diazaspiro[4.5]decan-8-yl)sulfonyl)-N-(1,2,3,5,6,7-hexahydro-s-indacen-4-yl)-4H-1,2,4-triazol-3-amine]
0.195	6.18	1.33	5.21	≤ 0.5	≤ 0.5	COc1cc(-c2cc(F)c3c(c2Nc2nnc(S(=O)(=O)N4CC5(CCN(C)C5)C4)[nH]2)CCC3)ccn1 [Example 299, N-(7-fluoro-5-(2-methoxypyridin-4-yl)-2,3-dihydro-1H-inden-4-yl)-5-((6-methyl-2,6-diazaspiro[3.4]octan-2-yl)sulfonyl)-4H-1,2,4-triazol-3-amine]
0.239	4.18	1.94	7.51	≤ 0.5	≤ 0.5	CN1CCC2(CCN(S(=O)(=O)c3nnc(Nc4c5c(cc6c4CCC6)CCC5)[nH]3)CC2)C1 [Example 276, N-(1,2,3,5,6,7-hexahydro-s-indacen-4-yl)-5-((2-methyl-2,8-diazaspiro[4.5]decan-8-yl)sulfonyl)-4H-1,2,4-triazol-3-amine]
1.24	0.81	0.653	0.518	≤ 10	≤ 0.5	CC(C)(O)Cn1ccc(S(=O)(=O)c2nnc(Nc3c4c(cc5c3CCC5)CCC4)[nH]2)n1 [Example 328, 1-(3-((5-((1,2,3,5,6,7-hexahydro-s-indacen-4-yl)amino)-4H-1,2,4-triazol-3-yl)sulfonyl)-1H-pyrazol-1-yl)-2-methylpropan-2-ol]
0.236	4.26	2.53	9.16	≤ 0.5	≤ 0.5	CN1CCC12CCN(S(=O)(=O)c1nnc(Nc3c4c(cc5c3CCC5)CCC4)[nH]1)CC2 [Example 270, N-(1,2,3,5,6,7-hexahydro-s-indacen-4-yl)-5-((1-methyl-1,7-diazaspiro[3.5]nonan-7-yl)sulfonyl)-4H-1,2,4-triazol-3-amine]
0.216	4.63	0.78	1.48	≤ 1	≤ 0.5	COc1cc(-c2ccc3c(c2Nc2nnc(S(=O)(=O)N4CCC(N(C)C)CC4)[nH]2)CCO3)ccn1 [Example 226, 1-((5-((5-(2-methoxypyridin-4-yl)-2,3-dihydrobenzofuran-4-yl)amino)-4H-1,2,4-triazol-3-yl)sulfonyl)-N,N-dimethylpiperidin-4-amine]
